Experimental findings from ChEMBL document CHEMBL1201862, “PubChem BioAssay data set” (2004) are described below.

Calls of active or inactive are those of the source. Bounds are passed on as bounds.

In one assay the target is Protein Tat (Human immunodeficiency virus type 1 group M subtype B (isolate HXB2)(HIV-1), UniProt P04608). The assay is classed as functional.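 Note: tat binding to TAR RNA read out by fluorescence polarization.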
The target of assay [1] is T1, Zinc finger protein mex-5 (Caenorhabditis elegans, UniProt Q9XUB2).
T1 sequence (Q9XUB2 whole entry): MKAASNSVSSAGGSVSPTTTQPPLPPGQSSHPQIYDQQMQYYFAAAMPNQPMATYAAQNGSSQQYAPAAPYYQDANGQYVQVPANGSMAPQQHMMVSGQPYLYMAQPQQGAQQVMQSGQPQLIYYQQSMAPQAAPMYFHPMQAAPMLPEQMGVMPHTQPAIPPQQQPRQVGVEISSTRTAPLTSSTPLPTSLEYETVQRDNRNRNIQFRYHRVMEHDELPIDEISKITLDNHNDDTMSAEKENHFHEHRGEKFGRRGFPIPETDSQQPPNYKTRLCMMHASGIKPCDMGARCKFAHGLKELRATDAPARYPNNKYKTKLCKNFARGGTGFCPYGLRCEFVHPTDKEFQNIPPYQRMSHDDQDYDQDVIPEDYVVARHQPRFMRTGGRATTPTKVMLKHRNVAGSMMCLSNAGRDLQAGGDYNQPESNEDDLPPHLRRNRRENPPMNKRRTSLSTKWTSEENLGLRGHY
The assay is described as follows: potency of MEX-5 RNA-binding blockers – biochemical, C. elegans, fluorescence polarization, dose response (AID 1960).

Assay [2] has as its target T2, Histone-lysine N-methyltransferase NSD2 (Homo sapiens, UniProt O96028).
T2 sequence (O96028 whole entry): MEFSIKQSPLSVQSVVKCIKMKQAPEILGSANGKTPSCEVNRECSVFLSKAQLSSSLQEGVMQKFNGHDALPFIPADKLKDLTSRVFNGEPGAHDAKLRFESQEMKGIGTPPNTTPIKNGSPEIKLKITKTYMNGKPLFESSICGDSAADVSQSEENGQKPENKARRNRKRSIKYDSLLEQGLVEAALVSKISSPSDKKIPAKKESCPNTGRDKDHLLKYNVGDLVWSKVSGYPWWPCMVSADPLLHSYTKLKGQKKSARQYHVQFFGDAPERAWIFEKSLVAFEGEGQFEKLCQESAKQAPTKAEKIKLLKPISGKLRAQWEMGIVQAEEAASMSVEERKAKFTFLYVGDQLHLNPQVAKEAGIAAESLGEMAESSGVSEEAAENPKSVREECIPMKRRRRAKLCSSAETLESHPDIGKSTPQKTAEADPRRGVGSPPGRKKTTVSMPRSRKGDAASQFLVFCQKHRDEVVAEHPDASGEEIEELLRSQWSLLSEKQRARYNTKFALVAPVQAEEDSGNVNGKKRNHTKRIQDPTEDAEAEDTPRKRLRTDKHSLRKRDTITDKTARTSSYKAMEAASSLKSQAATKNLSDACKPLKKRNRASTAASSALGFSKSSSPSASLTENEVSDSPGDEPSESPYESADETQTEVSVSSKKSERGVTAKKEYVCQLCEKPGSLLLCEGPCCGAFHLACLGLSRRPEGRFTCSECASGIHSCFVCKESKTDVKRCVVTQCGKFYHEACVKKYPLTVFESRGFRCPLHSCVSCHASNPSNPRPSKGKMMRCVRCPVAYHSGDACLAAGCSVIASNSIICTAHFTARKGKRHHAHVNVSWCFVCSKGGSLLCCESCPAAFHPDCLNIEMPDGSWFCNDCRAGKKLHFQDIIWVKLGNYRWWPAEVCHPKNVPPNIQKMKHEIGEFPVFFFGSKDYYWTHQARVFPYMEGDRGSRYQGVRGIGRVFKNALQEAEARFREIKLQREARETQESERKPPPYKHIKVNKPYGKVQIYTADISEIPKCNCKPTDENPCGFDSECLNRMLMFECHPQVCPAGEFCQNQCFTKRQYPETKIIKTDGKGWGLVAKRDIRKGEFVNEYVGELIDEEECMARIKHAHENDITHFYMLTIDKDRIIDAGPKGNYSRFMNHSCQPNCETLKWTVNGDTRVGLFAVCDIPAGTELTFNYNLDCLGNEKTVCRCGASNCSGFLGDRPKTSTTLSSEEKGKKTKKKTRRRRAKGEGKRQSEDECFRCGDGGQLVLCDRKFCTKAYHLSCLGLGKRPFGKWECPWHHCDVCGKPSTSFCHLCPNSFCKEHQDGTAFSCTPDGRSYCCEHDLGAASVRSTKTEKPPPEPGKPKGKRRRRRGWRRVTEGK
The assay is classed as biochemical.

Assay [3] has as its target T3, RNA-binding protein pos-1 (Caenorhabditis elegans, UniProt G5EF15).
T3 sequence (G5EF15 whole entry): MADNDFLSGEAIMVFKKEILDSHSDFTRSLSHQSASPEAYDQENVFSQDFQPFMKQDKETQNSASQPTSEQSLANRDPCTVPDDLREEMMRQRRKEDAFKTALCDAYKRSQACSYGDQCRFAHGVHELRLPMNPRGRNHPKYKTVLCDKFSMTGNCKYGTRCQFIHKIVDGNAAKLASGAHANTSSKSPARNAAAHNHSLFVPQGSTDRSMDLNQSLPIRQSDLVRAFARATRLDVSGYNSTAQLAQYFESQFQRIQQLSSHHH
As to the kind of experiment: disruptors of C. elegans POS-1 RNA interaction – biochemical, fluorescence polarization, dose response (AID 1964).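 Note: purified POS-1 fused to maltose binding protein made in E. coli; potency of compounds blocking POS-1 binding to fluorescent RNA.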

Assay [4] in a line: reduction of Shn3 3'UTR-driven luciferase in osteoblasts – cell-based, Clone20 osteoblasts, firefly luciferase, cherry-picked, dose response (AID 624132).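 Note: firefly luciferase luminescence from reporter carrying the Shn3 3'UTR in osteoblasts.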 The assay is classed as functional.
A short description of assay [5]: loss of viability in HepG2 cells – cell-based, CellTiter-Glo, cherry-picked, cytotoxicity control for Shn3 inhibitor project, dose response (AID 624134). The assay is classed as functional. Background: In ATP-based viability assays light output follows the ATP content of the culture.
The nature of assay [6]: Shn3 3'UTR reporter signal decrease – cell-based, Clone20 osteoblasts, firefly luciferase, cherry-pick, set 2, Schnurri-3 inhibitor project, dose response (AID 720490).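 Note: actives lower the luminescence signal as inhibitors.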 The format is functional.
The target of assay [7] is 1-phosphatidylinositol 4,5-bisphosphate phosphodiesterase gamma-1 (Homo sapiens, UniProt P19174). The assay is described as follows: Counterscreen for inhibitors of phospholipase C isozymes (PLC-B3): Fluorescence-based biochemical high throughput dose response assay to identify inhibitors of phospholipase C isozymes (PLC-gamma1). In general terms: The purpose of a counterscreen is to sort out artefacts and off-target activity.
Chain of 1-phosphatidylinositol 4,5-bisphosphate phosphodiesterase gamma-1 (P19174 whole entry): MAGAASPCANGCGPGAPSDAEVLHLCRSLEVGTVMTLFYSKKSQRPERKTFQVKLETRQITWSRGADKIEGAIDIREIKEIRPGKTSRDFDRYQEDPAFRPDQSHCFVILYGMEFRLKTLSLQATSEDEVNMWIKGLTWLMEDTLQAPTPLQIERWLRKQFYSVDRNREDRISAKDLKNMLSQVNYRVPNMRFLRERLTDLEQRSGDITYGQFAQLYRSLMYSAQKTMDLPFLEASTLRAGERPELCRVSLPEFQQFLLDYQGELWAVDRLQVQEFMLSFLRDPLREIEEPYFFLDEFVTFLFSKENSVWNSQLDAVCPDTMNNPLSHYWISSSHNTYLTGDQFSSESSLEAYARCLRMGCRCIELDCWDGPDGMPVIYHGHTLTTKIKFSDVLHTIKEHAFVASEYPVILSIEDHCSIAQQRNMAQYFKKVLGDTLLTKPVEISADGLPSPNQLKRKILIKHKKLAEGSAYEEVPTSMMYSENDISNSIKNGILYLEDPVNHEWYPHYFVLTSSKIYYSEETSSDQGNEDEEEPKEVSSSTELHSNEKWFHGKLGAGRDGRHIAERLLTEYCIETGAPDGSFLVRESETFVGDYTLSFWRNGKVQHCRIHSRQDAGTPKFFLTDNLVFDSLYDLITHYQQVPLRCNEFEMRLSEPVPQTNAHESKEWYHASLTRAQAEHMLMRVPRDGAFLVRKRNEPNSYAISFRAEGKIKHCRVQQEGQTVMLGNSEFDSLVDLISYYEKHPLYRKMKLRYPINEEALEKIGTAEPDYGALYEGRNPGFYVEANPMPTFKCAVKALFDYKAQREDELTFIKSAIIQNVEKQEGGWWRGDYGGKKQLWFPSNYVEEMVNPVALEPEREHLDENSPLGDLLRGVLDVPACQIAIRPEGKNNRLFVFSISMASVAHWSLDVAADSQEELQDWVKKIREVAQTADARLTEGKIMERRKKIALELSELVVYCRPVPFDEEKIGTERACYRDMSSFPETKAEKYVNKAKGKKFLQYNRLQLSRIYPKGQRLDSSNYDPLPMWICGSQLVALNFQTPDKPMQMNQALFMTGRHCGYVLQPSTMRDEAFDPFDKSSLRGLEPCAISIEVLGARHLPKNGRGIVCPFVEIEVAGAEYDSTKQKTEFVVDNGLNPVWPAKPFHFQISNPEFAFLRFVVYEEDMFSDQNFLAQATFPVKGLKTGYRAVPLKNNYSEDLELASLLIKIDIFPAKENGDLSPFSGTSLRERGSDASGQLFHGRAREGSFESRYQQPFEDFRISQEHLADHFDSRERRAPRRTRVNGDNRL

In assay [8] the target is 1-phosphatidylinositol 4,5-bisphosphate phosphodiesterase beta-3 (Homo sapiens, UniProt Q01970). As to the kind of experiment: Fluorescence-based biochemical high throughput dose response assay to identify inhibitors of phospholipase C isozymes (PLC-B3).
Chain of 1-phosphatidylinositol 4,5-bisphosphate phosphodiesterase beta-3 (Q01970 whole entry): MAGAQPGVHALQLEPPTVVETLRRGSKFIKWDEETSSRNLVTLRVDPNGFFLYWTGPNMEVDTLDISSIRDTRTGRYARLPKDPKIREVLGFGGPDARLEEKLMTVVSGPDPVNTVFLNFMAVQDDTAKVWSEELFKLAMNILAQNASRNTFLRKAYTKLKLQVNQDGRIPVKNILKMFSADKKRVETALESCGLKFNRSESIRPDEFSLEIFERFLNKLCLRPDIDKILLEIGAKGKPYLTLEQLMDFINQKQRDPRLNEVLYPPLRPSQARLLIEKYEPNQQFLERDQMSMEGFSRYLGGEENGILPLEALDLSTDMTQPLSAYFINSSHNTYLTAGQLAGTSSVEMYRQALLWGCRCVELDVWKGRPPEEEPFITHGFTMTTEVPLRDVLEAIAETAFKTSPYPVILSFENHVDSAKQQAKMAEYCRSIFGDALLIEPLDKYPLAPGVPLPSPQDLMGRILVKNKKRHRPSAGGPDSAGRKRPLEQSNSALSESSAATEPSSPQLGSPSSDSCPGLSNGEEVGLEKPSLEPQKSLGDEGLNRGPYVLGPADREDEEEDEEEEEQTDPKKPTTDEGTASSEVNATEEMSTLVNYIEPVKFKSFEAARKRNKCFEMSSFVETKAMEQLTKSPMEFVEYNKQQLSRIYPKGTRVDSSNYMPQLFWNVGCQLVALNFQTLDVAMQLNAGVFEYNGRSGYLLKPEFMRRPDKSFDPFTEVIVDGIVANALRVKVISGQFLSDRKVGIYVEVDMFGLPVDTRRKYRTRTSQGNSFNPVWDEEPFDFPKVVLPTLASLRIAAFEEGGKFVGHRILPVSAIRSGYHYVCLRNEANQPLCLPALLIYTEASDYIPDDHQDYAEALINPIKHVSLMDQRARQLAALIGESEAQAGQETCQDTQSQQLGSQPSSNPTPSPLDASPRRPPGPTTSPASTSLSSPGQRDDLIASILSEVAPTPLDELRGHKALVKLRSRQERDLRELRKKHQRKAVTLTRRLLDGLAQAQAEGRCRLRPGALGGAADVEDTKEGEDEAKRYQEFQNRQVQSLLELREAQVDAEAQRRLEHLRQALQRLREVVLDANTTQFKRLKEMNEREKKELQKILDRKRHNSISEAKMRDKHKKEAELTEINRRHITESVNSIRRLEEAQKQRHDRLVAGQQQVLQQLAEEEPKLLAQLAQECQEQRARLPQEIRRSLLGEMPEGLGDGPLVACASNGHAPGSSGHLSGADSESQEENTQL
The nature of assay [9]: non-specific 3'UTR reporter inhibition in Clone20-Shn3RL – cell-based, Renilla luciferase, cherry-picked, counter-screen for Shn3 inhibitor project, dose response (AID 624133). The format is functional.
The nature of assay [10]: HEK293 Cytotoxicity Assay Measured in Cell-Based System Using Plate Reader - 7071-01_Inhibitor_Dose_CherryPick_Activity_Set2. The format is functional.
In a further assay the test system is HEK293. The assay is described as follows: viability loss in HEK293T cells – cell-based, ATP luminescence, cherry-pick samples, cytotoxicity control, dose response (AID 687005).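 Note: cells exposed to compound for 48 hours.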 The conditions noted are these: Homo sapiens. The assay is classed as functional.
Assay [11] in a line: P. falciparum Dd2 growth inhibitors, dose response, SYBR Green, cherry-picked samples (AID 1159567). The format is functional, cell-based.
Assay [12] can be described thus: toxicity to human hepatoma HepG2 cells – cell-based, cherry-picked samples, cytotoxicity control, dose response (AID 1159577). The assay is classed as functional.
Assay [13] is described as follows: growth inhibition of yeast DHODH-expressing 3D7 parasites – SYBR Green, dry powder samples, dose response (AID 1159570).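 Note: parasite growth measured after 72 hours of compound exposure.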 The assay is classed as functional, cell-based.
Assay [14] is described as follows: growth inhibition of PfATP4-mutant resistant parasites – NITD609-resistant line, SYBR Green, dry powder, dose response (AID 1159571).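 Note: parasites synchronized at ring stage by sorbitol before testing.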 The format is functional, cell-based.
Assay [15] can be described thus: Dd2 malaria parasite growth inhibition potency – SYBR Green, dry powder samples, dose response (AID 1159566).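 Note: potency for growth inhibition with lower SYBR green DNA signal.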 The format is functional, cell-based.
Assay [16] can be described thus: toxicity to human HepG2 hepatoma cells – cell-based, plate reader, dry powder samples, cytotoxicity control, dose response (AID 1159569).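 Note: inhibitor potency with signal falling toward the positive control level.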 The format is functional.
A short description of assay [17]: HPDE-C7 pancreatic duct cell viability loss – fluorescence, HTS (AID 430). The format is functional, cell-based. The following applies: Homo sapiens.
Assay [18] can be described thus: viability loss of HPDE-C7K cells – cell-based, fluorescence, HTS, primary screen (AID 431). The format is functional. The following applies: Homo sapiens.
Assay [19] is described as follows: Reduced DLD-1 viability, concentration-response, CellTiter-Glo luminescence (AID 1117352). The format is functional.
Assay [20] is described as follows: CellTiter-Glo luminescence survival assay, SW480 colon tumor line, concentration-response curve, half-maximal inhibitory concentration (AID 1117338). The format is functional.
The target of the next assay is Large T antigen (Simian virus 40, UniProt P03070). The assay is classed as functional, Betapolyomavirus macacae.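 Note: Confirmatory-stage PubChem screen for compounds that inhibit SV40 T antigen.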
Chain of Large T antigen (P03070 whole entry): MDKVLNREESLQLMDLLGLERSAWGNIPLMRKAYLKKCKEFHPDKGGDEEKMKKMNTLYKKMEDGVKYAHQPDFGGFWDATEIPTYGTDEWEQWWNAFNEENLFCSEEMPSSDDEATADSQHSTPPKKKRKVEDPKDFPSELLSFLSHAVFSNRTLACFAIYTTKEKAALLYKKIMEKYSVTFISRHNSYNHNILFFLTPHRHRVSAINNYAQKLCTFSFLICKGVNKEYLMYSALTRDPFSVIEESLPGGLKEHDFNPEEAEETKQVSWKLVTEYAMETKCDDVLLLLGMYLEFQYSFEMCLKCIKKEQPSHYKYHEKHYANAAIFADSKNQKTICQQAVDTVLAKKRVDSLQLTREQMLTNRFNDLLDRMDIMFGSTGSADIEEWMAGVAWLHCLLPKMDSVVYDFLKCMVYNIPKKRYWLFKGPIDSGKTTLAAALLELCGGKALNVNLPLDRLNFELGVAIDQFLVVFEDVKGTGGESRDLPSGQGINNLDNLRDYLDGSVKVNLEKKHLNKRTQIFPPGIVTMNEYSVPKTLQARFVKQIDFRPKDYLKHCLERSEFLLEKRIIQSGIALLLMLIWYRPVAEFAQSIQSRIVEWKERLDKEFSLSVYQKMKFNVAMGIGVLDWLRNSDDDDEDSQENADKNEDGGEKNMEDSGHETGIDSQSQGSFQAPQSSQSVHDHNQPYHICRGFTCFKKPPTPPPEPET
Assay [21] in a line: RKO cell viability reduction, dose response, CellTiter-Glo luminescence (AID 1117322). The format is functional.
Assay [22] in a line: SNU-C1 cell viability reduction, dose response, CellTiter-Glo luminescence (AID 1117323). The format is functional, cell-based.
Assay [23] in a line: HCT116 cell viability decrease, GSK3B pretreatment – CellTiter-Glo, IC50, dose response (AID 1117339). The assay is classed as functional. The conditions noted are these: HCT-116.
Assay [24] can be described thus: cytotoxicity toward Colo320 cells – cell-based, CellTiter-Glo luminescence, IC50, dose response (AID 1117334). The assay is classed as functional. The conditions noted are these: COLO 320.
A short description of assay [25]: cytotoxicity toward HCT116 cells – cell-based, CellTiter-Glo luminescence, IC50, dose response (AID 1117332). The format is functional. The conditions noted are these: HCT-116.
The nature of assay [26]: Potency on glucagon-like peptide 1 release, dose-response in NCI-H716 cell line, half maximal inhibitory concentration (AID 1117344). The format is functional, cell-based.

Chain of Protein Tat (P04608 whole entry): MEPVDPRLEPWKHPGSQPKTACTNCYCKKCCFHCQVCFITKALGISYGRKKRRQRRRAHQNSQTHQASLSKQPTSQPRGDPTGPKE

With `O=C(c1coc(=O)c(Br)c1)N1CCCc2ccccc21`, the IC50 at Protein Tat is 4.84 µM (inconclusive). Moreover, the EC50 in [1] and in assay [3] was > 300 µM (not active) throughout. The AC50 in assay [2] was 12.2 µM (active).

In the case of `COc1ccc(CNC(=O)C(C)n2ccc3cc(S(=O)(=O)N4CCCCCC4)ccc32)cc1` (configuration not stated), the half-maximal activity concentration (AC50) in [4] was 0.518 µM (active); in assay [5], > 70 µM (inactive); in [6], 17.4 µM (active).

Turning to `COc1ccc(CS(=O)(=O)c2nnc[nH]2)cc1`, the IC50 in [7] is 15.5 µM (inactive); in assay [8] it was > 123 µM (inactive).

For `CCOC(=O)c1oc2ccc(S(=O)(=O)n3nc(-c4ccc(OC)cc4)cc3N)cc2c1C`, the AC50 in assay [4] was 1.99 µM (active); in assay [5], 60 µM (active); in assay [9] it was 30 µM (active); in assay [6] it was 4.68 µM (active).

Take `COc1cc(NS(=O)(=O)c2ccc(NC(=O)CN3C(=O)c4ccccc4C3=O)cc2)nc(OC)n1`: the IC50 in [7] and in assay [8] was > 122 µM (inactive) each time.

On to `Cc1cccc(-c2ccc([C@@H]3[C@@H](CO)N4CCCCN(S(=O)(=O)c5ccccc5C)C[C@@H]34)cc2)c1`, for which the AC50 (in assay [10]; in the assay with HEK293) was 19.3 µM (active) in each case.

Consider `COc1cccc(-c2ccc([C@H]3[C@H](C#N)N(C(=O)Cc4ccncc4)[C@H]3CO)cc2)c1`, for which the AC50 in assay [11] is 4.28 µM (active); in assay [12] it was 33.8 µM (active).

Take `COc1cc(CN2C[C@@H]3N[C@H](C2)[C@H]3c2ccc(-c3ccncc3)cc2)cc(OC)c1`: the AC50 in [13] was 1.33 µM (active); in assay [11] it was 1.63 µM (active); in [14] it was 0.886 µM (active); in assay [15], 1.16 µM (active); in assay [16] it was 19.6 µM (active).

With `N#C[C@@H]1[C@H](c2ccc(C#CC3CCCCC3)cc2)[C@@H](CO)N1C(=O)Cc1ccccn1`, the AC50 in [11] is 3.79 µM (active); in assay [12], > 39 µM (inactive).

In the case of `C=C(CC)C(=O)c1ccc(OCC(=O)O)c(Cl)c1Cl` [ETHACRYNIC ACID], the figures for the EC50 in assay [17] and in assay [18] were 10.4 µM (active) and 11.3 µM (active), respectively. The IC50 was 11.9 µM (inactive) in assay [19]; > 6.67 µM (inactive) in assay [20]; > 100 µM (active) on Large T antigen; > 6.67 µM (inactive) in assay [21]; > 20 µM (inactive) in [22]; 12.2 µM (inactive) in [23]. In addition, the IC50 in assay [24] and in [25] was > 20 µM (inactive) each time.

Consider `Cc1ccc(C(=O)Nc2ccc(S(=O)(=O)O)c3cc(S(=O)(=O)O)cc(S(=O)(=O)O)c23)cc1NC(=O)c1cccc(NC(=O)Nc2cccc(C(=O)Nc3cc(C(=O)Nc4ccc(S(=O)(=O)O)c5cc(S(=O)(=O)O)cc(S(=O)(=O)O)c45)ccc3C)c2)c1` [SURAMIN], for which the IC50 in assay [26] was > 40 µM (inactive).

One may read the IC50 as the concentration at which inhibition is half-maximal. For orientation: EC50 means the concentration at which the effect is half-maximal. The term AC50 denotes the concentration at which the activity in the assay is half-maximal.
